{
  "source": "patent US20250360148A1",
  "about": "“SOLID DISPERSIONS OF PSILOCYBIN” (Cybin IRL Limited, priority 2022, published 2025)",
  "key": {"[1]": {"assay": "Characterization and 40° C. closed-vial stability of spray dried solid dispersions (XRPD, mDSC, TGA)", "format": "physicochemical", "conditions": "t = 0, spray dried", "protocol": "X-ray power diffraction (XRPD): XRPD patterns were collected on a Bruker AXS D2 diffractometer using Cu Kα radiation (30 kV, 10 mA), […], using a LynxEye detector from 5-42 °2θ.\nThe details of the data collection are: • Angular range: 5 to 42 °2θ • Step size: 0.024° 2θ • Collection time: 0.1 seconds per step.\nSamples were run under ambient conditions and prepared as flat plate specimens using powder without grinding. Approximately 1-2 mg of the sample was lightly pressed on a silicon wafer to obtain a flat surface.\nModulated differential scanning calorimetry (mDSC): TOPEM® is a temperature modulated DSC method which differs from conventional DSC in allowing the total heat flow to be separated into reversing and non-reversing heat flow components. Such techniques help distinguish between processes or transitions that overlap or lie very close to one another. The glass transition temperature (Tg) was determined from the reversible heatflow component.\nTOPEM® DSC data were collected on a Mettler DSC 3+ equipped with a 34 position auto-sampler. The instrument was calibrated for energy and temperature using certified indium. Typically, 3-5 mg of each sample, in a pin-holed aluminium pan, was heated at 2 K·min^−1 from 30° C. to 220° C. with a pulse height of 0.64 K and a pulse width 15-30 sec. A nitrogen purge at 50 mL·min^−1 was maintained over the sample. […]"}, "[2]": {"conditions": "cited from earlier work"}, "[3]": {"assay": "XRPD characterization of freeze-dried solid dispersions, physical mixtures and starting material", "format": "physicochemical", "conditions": "as prepared; solid form of psilocybin (PY) in freeze-dried dispersion, physical mixture or starting material", "protocol": "The samples were prepared in silicon low background holders using light manual pressure to keep the sample surface flat and level with the reference surface of the sample holder. The single crystal Si low background holder has a circular recess (10 mm diameter and about 0.2 mm depth) that holds the sample.\nThe Rigaku Smart-Lab diffraction system used was configured for Bragg-Brentano reflection geometry using a line source X-ray beam. The Bragg-Brentano geometry was controlled by passive divergence and receiving slits with the sample itself acting as the focusing component for the optics. The figures were created using PlotMon V2.1.1.0.\nHigh-resolution XRPD analysis was performed using Rigaku Smart-Lab diffraction system configured for Debye-Scherrer transmission geometry. The Debye-Scherrer convergent beam geometry utilizes a curved x-ray mirror to focus the incident beam through the sample and onto the detector plane. The axial divergence of the X-ray beam was controlled by 5.0° Soller slits in both the incident and diffracted beam paths.\nFreeze-dried solid dispersions of Examples 1-5, and corresponding Reference Examples, were characterized using X-ray powder diffraction (XRPD)."}},
  "note": "Marks after values point to notes of the source that are not given here.",
  "data": [
    {"compound": "CN(C)CCc1c[nH]c2cccc(OP(=O)(O)O)c12", "note": "[Psilocybin (PY), 3-(2-(dimethylamino)ethyl)-1H-indol-4-yl dihydrogen phosphate]", "values": [
      {"measurement": "XRPD", "setting": "[1]", "value": "Amorphous"},
      {"measurement": "Tg", "setting": "[1]; mDSC", "value": 161, "unit": "°C"}
    ]},
    {"compound": "CN(C)CCc1c[nH]c2cccc(OP(=O)(O)O)c12", "note": "[amorphous psilocybin]", "values": [
      {"measurement": "Tg (midpoint)", "setting": "[2]; reported by Greenan et al.", "value": 163, "unit": "°C"},
      {"measurement": "physical stability of the amorphous form without polymer", "setting": "[2]; variety of stress conditions, Greenan et al.", "value": "known to crystallize"}
    ]},
    {"compound": "CN(C)CCc1c[nH]c2cccc(OP(=O)(O)O)c12", "note": "[Crystalline PY starting material, 3-(2-(dimethylamino)ethyl)-1H-indol-4-yl dihydrogen phosphate]", "values": [
      {"measurement": "XRPD Results", "setting": "[3]", "value": "crystalline PY (methanol solvate)^a"}
    ]}
  ]
}
